What was measured:
[1] = xn = mol fraction of the nth substance listed; conditions: 101 kPa, Liquid, Vibrating tube method
[2] = molar heat capacity at constant pressure; xn = mol fraction of the nth substance listed; conditions: 101 kPa, Liquid, Small sample (50 mg) DSC

CCCCn1cc[n+](C)c1.COS(=O)(=O)[O-] [1-butyl-3-methylimidazolium methyl sulfate] + CCO
Conditions	mass density, [1] [kg/m3]	molar heat capacity at constant pressure, [2] [J/K/mol]
293.15 K, x1 = 0.0511	860.9	128.1
293.15 K, x1 = 0.1025	916.2	143.3
293.15 K, x1 = 0.199	–	171.7
293.15 K, x1 = 0.2016	995	–
293.15 K, x1 = 0.3106	1055	204.1
293.15 K, x1 = 0.4058	1093.4	232.2
293.15 K, x1 = 0.5057	1124.7	262.1
293.15 K, x1 = 0.6005	1147.9	290.9
293.15 K, x1 = 0.69	1166.6	318.2
293.15 K, x1 = 0.7834	1182.5	346.9
293.15 K, x1 = 0.8815	1196.6	377.1
293.15 K, x1 = 0.9368	1203.5	394
298.15 K, x1 = 0.0511	856.7	130
298.15 K, x1 = 0.1025	912.2	145.1
298.15 K, x1 = 0.199	–	173.4
298.15 K, x1 = 0.2016	991.2	–
298.15 K, x1 = 0.3106	1051.3	205.8
298.15 K, x1 = 0.4058	1089.8	234
298.15 K, x1 = 0.5057	1121.2	263.9
298.15 K, x1 = 0.6005	1144.5	292.8
298.15 K, x1 = 0.69	1163.1	320.3
298.15 K, x1 = 0.7834	1179.1	349.1
298.15 K, x1 = 0.8815	1193.2	379.5
298.15 K, x1 = 0.9368	1200.2	396.5
303.15 K, x1 = 0.0511	852.6	131.8
303.15 K, x1 = 0.1025	908.2	146.7
303.15 K, x1 = 0.199	–	174.9
303.15 K, x1 = 0.2016	987.4	–
303.15 K, x1 = 0.3106	1047.6	207.2
303.15 K, x1 = 0.4058	1086.3	235.6
303.15 K, x1 = 0.5057	1117.7	265.6
303.15 K, x1 = 0.6005	1141	294.7
303.15 K, x1 = 0.69	1159.7	322.3
303.15 K, x1 = 0.7834	1175.7	351.2
303.15 K, x1 = 0.8815	1189.9	381.7
303.15 K, x1 = 0.9368	1196.9	398.9
308.15 K, x1 = 0.0511	848.5	133.5
308.15 K, x1 = 0.1025	904.3	148.3
308.15 K, x1 = 0.199	–	176.4
308.15 K, x1 = 0.2016	983.6	–
308.15 K, x1 = 0.3106	1043.9	208.6
308.15 K, x1 = 0.4058	1082.7	237.1
308.15 K, x1 = 0.5057	1114.2	267.3
308.15 K, x1 = 0.6005	1137.6	296.5
308.15 K, x1 = 0.69	1156.3	324.2
308.15 K, x1 = 0.7834	1172.3	353.3
308.15 K, x1 = 0.8815	1186.6	383.9
308.15 K, x1 = 0.9368	1193.6	401.2
313.15 K, x1 = 0.0511	844.4	135
313.15 K, x1 = 0.1025	900.2	149.7
313.15 K, x1 = 0.199	–	177.6
313.15 K, x1 = 0.2016	979.8	–
313.15 K, x1 = 0.3106	1040.3	209.9
313.15 K, x1 = 0.4058	1079.1	238.5
313.15 K, x1 = 0.5057	1110.7	268.9
313.15 K, x1 = 0.6005	1134.1	298.2
313.15 K, x1 = 0.69	1152.9	326.1
313.15 K, x1 = 0.7834	1169	355.3
313.15 K, x1 = 0.8815	1183.3	386
313.15 K, x1 = 0.9368	1190.3	403.3
318.15 K, x1 = 0.0511	840.1	136.6
318.15 K, x1 = 0.1025	896.1	151
318.15 K, x1 = 0.199	–	178.8
318.15 K, x1 = 0.2016	975.9	–
318.15 K, x1 = 0.3106	1036.6	211.2
318.15 K, x1 = 0.4058	1075.5	239.8
318.15 K, x1 = 0.5057	1107.2	270.5
318.15 K, x1 = 0.6005	1130.7	299.9
318.15 K, x1 = 0.69	1149.5	327.9
318.15 K, x1 = 0.7834	1165.6	357.3
318.15 K, x1 = 0.8815	1180	388
318.15 K, x1 = 0.9368	1187	405.4

CCCCn1cc[n+](C)c1.F[B-](F)(F)F [1-butyl-3-methylimidazolium tetrafluoroborate] + CCO
Conditions	mass density, [1] [kg/m3]	molar heat capacity at constant pressure, [2] [J/K/mol]
293.15 K, x1 = 0.0987	903	150.5
293.15 K, x1 = 0.1923	976.5	174.4
293.15 K, x1 = 0.3004	1037.8	197.8
293.15 K, x1 = 0.3885	1075.8	219.8
293.15 K, x1 = 0.4865	1108.8	240.1
293.15 K, x1 = 0.573	1132.8	258.3
293.15 K, x1 = 0.6738	1155.4	281.8
293.15 K, x1 = 0.7531	1170.9	300.8
293.15 K, x1 = 0.8821	1191.8	330.9
298.15 K, x1 = 0.0987	898.9	150
298.15 K, x1 = 0.1923	972.5	173.6
298.15 K, x1 = 0.3004	1033.9	198.8
298.15 K, x1 = 0.3885	1071.9	219.6
298.15 K, x1 = 0.4865	1105	241.2
298.15 K, x1 = 0.573	1129.1	259.7
298.15 K, x1 = 0.6738	1151.7	283.5
298.15 K, x1 = 0.7531	1167.2	302.6
298.15 K, x1 = 0.8821	1188.2	333
303.15 K, x1 = 0.0987	894.8	149.9
303.15 K, x1 = 0.1923	968.5	173.5
303.15 K, x1 = 0.3004	1030	199.7
303.15 K, x1 = 0.3885	1068	219.9
303.15 K, x1 = 0.4865	1101.2	242.3
303.15 K, x1 = 0.573	1125.3	261.1
303.15 K, x1 = 0.6738	1148	285.2
303.15 K, x1 = 0.7531	1163.5	304.3
303.15 K, x1 = 0.8821	1184.6	335.1
308.15 K, x1 = 0.0987	890.8	150.3
308.15 K, x1 = 0.1923	964.6	174.2
308.15 K, x1 = 0.3004	1026.1	200.6
308.15 K, x1 = 0.3885	1064.2	220.6
308.15 K, x1 = 0.4865	1097.4	243.4
308.15 K, x1 = 0.573	1121.6	262.4
308.15 K, x1 = 0.6738	1144.4	286.9
308.15 K, x1 = 0.7531	1159.9	306.2
308.15 K, x1 = 0.8821	1181	337.2
313.15 K, x1 = 0.0987	886.6	151.1
313.15 K, x1 = 0.1923	960.5	175.6
313.15 K, x1 = 0.3004	1022.2	201.4
313.15 K, x1 = 0.3885	1060.4	221.7
313.15 K, x1 = 0.4865	1093.6	244.4
313.15 K, x1 = 0.573	1117.9	263.7
313.15 K, x1 = 0.6738	1140.7	288.5
313.15 K, x1 = 0.7531	1156.3	308
313.15 K, x1 = 0.8821	1177.4	339.3
318.15 K, x1 = 0.0987	882.4	152.4
318.15 K, x1 = 0.1923	956.5	177.8
318.15 K, x1 = 0.3004	1018.2	202.3
318.15 K, x1 = 0.3885	1056.5	223.3
318.15 K, x1 = 0.4865	1089.8	245.6
318.15 K, x1 = 0.573	1114.2	265.1
318.15 K, x1 = 0.6738	1137.1	290.1
318.15 K, x1 = 0.7531	1152.7	309.9
318.15 K, x1 = 0.8821	1173.8	341.4
